# From US20110251220A1, “Pharmaceutical compositions comprising gamma secretase modulators” (priority 2008, published 2011)
# How the values were obtained:
# Assay type in all cases: cell-based, human
# [1] = system: tartrate resistant acid phosphatase-5 (TRAP5); assay: TRAP5 mRNA expression in OCL (quantitative RT-PCR); details: OCL after coculture with OPM-2
# Method: In osteoclast coculture experiments, OPM-2 cells (1×10^6 cells) were added to osteoclasts in 60 mm dishes (4×10^6 cells per dish) in 3 ml MEM medium supplemented with 10% FCS, 100 U/ml penicillin, 100 μg/ml streptomycin. GSI15 (30 μM, 60 μM) or DMSO (equivalent to 60 μM) as solvent control were added to each well (daily treatment). After 48 h, 0.5 ml OPM-2 cell suspension were harvested per well and subjected to AnnexinV-FITC/PI staining. Remaining OPM-2 cells were harvested and lysed for either RNA or protein preparation. The monolayer of osteoclasts was washed twice with ice-cold PBS and then lysed for either RNA or protein preparation directly on the plate.
# Quantitative real-time reverse transcription-PCR (RT-PCR) analysis was performed using the following primer/probe sets: human Hes-1 (forward—[…], reverse—[…], probe—FAM-[…]-TAMRA) human TRAP5 (forward—[…], reverse—[…], probe FAM-[…]-TAMRA), human beta2-microglobulin (forward—ccc cca ctg aaa aag atg ag, reverse—atc caa tcc aaa tgc ggc, probe—FAM-CCTGCCGTGTGAACCATGTGACTTT-TAMRA) served as normalizer. […] For the RT-PCR reaction SuperScript™ III Platinum® One-Step Quantitative RT-PCR System (Invitrogen, Karlsruhe, Germany) was used. 50 ng total RNA were used per reaction, each RNA sample was analyzed in three replicates. […] Normalized mRNA expression data were then calculated as values relative to the respective untreated sample.
# LP-1 cells = assay: Proliferation assay (CellTiter-Glo), LP-1; details: LP-1, 48 h treatment
# Method: Human MM cell lines used were as follows: NCI-H929, OPM-2, LP-1, RPMI-8226, U266 (DSMZ, Braunschweig, Germany). Cell lines were cultured in RPMI 1640 medium (Biochrom, Berlin, Germany) supplemented with 10% heat-inactivated fetal calf serum (FCS, Gibco, Karlsruhe, Germany), 1 mM sodium pyruvate and 100 units/ml penicillin and 100 μg/ml streptomycin (Gibco). Human osteoclasts were obtained as described in the reference of Zavrski I, Krebbel H, Wildemann B, et al. Proteasome inhibitors abrogate osteoclast differentiation and osteoclast function. Biochem Biophys Res Commun. 2005; 333:200-205. Briefly, peripheral blood mononuclear cells (PBMC) were isolated from whole blood of healthy volunteers, using a Ficoll-Hypaque density gradient. The adherent fraction of the isolated mononuclear cells was cultured for 21 days in MEM medium (Sigma-Aldrich Chemie, Taufkirchen, Germany) supplemented with 10% FCS, 100 U/ml penicillin, 100 μg/ml streptomycin, 50 ng/ml M-CSF, and 25 ng/ml RANKL (osteoclastogenic medium), before coculture experiments and treatment with the inventive compounds started. […]
# For assaying proliferation/viability of cells CellTiter-Glo Luminescent Cell Viability Assay (Promega, Mannheim, Germany) was used. In this assay the number of viable cells at a given time point is determined by quantification of ATP present, which serves as a measure of metabolically active cells. […]
# U266 cells = assay: PARP cleavage by Western blotting, U266
# Method: Whole cell extracts were prepared and quantified as described in Jundt F, Anagnostopoulos I, Forster R, Mathas S, Stein H, Dorken B. Activated Notch1 signaling promotes tumor cell proliferation and survival in Hodgkin and anaplastic large cell lymphoma. Blood. 2002; 99:3398-3403. Proteins (30 μg) were resolved by sodium dodecyl sulfate-polyacrylamide gel electrophoresis (SDS-PAGE) and transferred to nitrocellulose membranes. Protein loading was normalized by Ponceau red staining. Membranes were incubated with monoclonal mouse anti-Notch1 antibody (no. 552466; BD Biosciences, Heidelberg, Germany), anti-Jagged1 antibody (sc-8303; Santa Cruz Biotechnology), polyclonal rabbit anti-Delta antiboday (Santa Cruz Biotechnology), polyclonal rabbit anti-cleaved PARP (Asp214) antibody (Cell Signaling Technologies, Frankfurt a.M., Germany) or mouse monoclonal anti-tubulin antibody (Sigma, Deisenhofen, Germany).
# Secondary antibodies were goat anti-mouse (Promega, Mannheim, Germany), goat anti-rat (Dianova, Hamburg, Germany), and goat anti-rabbit (Santa Cruz Biotechnology) horseradish peroxidase (HRP)-conjugated antibodies. Detection was done using Pico chemi-luminescence reagent (Perbio Science, Bonn, Germany).
smiles,measurement,setting,value
"CC(C)c1ccc(S(=O)(=O)Nc2cccnc2Oc2ccc(Cl)cc2)cc1 [Example 1, N-(2-(4-chlorophenoxy)pyridin-3-yl)-4-isopropylbenzenesulfonamide]",TRAP5 mRNA expression,[1],completely blocked the upregulation of TRAP5 mRNA expression
same,concentration of maximum effect on proliferation,LP-1 cells,60 µM
same,proliferation,LP-1 cells,dose-dependent reduction of proliferation
same,PARP cleavage product (apoptosis marker),U266 cells,not in the U266 cell line
